Source: publication PMC6119295 (International Journal of Neuropsychopharmacology, 2018)

Legend:
C57BL6 mice [1] = details: mouse, in vivo
C57BL6 mice [2] = test: Morphine-induced analgesia in a hot plate assay; assay type: in vivo, mouse; details: dose used in prolactin/rotarod experiments; data not shown
rodents = details: ref Valenza et al., 2017; cited from earlier work
[3] = ref White et al., 2015, cited from earlier work
caudate putamen = details: 3.2 mg/kg, ref Zhang et al., 2005, cited from earlier work
mice = details: cited from earlier work
[4] = up to 10 mg/kg; ref Erli et al. 2017; cited from earlier work
DOR = DOR (Homo sapiens, UniProt P41143); test: Opioid receptor binding, DOR
MOR = MOR (Rattus norvegicus, UniProt P33535); test: Opioid receptor binding, MOR
C57BL6 mice [5] = details: mouse, in vivo; remark: listed apart in the source
dopamine D2 receptor = details: ref Spetea et al., 2012; cited from earlier work

MOR, sequence (P33535 whole entry): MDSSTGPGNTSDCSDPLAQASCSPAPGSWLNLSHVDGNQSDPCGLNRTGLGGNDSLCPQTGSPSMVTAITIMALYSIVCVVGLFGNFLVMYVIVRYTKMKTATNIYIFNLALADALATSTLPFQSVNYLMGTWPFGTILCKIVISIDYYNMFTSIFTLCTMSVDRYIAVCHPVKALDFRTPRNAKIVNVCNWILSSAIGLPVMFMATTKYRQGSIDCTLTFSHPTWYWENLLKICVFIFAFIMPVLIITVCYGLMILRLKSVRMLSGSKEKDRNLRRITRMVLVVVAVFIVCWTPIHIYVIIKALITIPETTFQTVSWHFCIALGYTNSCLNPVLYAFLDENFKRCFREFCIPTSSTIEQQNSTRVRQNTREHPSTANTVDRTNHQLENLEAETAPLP
DOR, sequence (P41143 whole entry): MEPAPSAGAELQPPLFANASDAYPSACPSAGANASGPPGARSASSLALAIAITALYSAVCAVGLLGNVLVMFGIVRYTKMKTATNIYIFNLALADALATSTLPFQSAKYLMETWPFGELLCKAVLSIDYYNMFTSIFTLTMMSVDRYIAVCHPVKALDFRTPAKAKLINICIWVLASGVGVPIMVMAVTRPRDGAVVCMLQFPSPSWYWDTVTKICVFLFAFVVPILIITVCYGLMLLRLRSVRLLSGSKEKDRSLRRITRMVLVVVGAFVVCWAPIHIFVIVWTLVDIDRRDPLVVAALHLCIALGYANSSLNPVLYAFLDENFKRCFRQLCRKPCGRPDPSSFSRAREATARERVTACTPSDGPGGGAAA

NC(=O)c1ccc(Oc2ccc(CN3CCC[C@H]3c3cccc(F)c3)cc2)c(F)c1 [LY2444296, (S)-3-fluoro-4-(4-((2-(3-fluorophenyl)pyrrolidin-1-yl)methyl)phenoxy)benzamide]
Blockade of U50,488-stimulated prolactin release (C57BL6 mice [1]): blocks the effects
Effect of antagonist alone on serum prolactin (C57BL6 mice [1]): no effect on prolactin
Effect on morphine-induced analgesia in hot plate assay (C57BL6 mice [2]): does not inhibit morphine-induced analgesia
Duration of action (short-acting) (rodents): < 48 h

COC(=O)[C@@H]1C[C@H](OC(=O)CSC#N)C(=O)[C@H]2[C@@]1(C)CC[C@H]1C(=O)O[C@H](c3ccoc3)C[C@]21C [RB-64]
Effect on the rotarod [3]: did not have an effect on the rotarod

COC(=O)[C@@H]1C[C@H](OC(C)=O)C(=O)[C@H]2[C@@]1(C)CC[C@H]1C(=O)O[C@H](c3ccoc3)C[C@]21C [salvinorin A]
Duration of decrease of extracellular dopamine (caudate putamen; after administration): at least 3 hours
Decrease of extracellular dopamine in the caudate putamen (caudate putamen; systemic): over 50%
Time after injection at which rotarod incoordination begins returning to normal ([3]; 3 mg/kg): ≤ 30 min

Oc1cccc(CCN(CCc2ccccc2)CC2CCC2)c1 [MCBPHA, N-methylcyclobutyl-N-phenylethyl-N-3-hydroxyphenylethyl-amine]
Effect on serum prolactin after LY2444296 pretreatment (C57BL6 mice [1]): blocked the effect
Potency in peripheral analgesia (acetic acid writhing) (mice; mice, ref Spetea et al., 2012): equally potent as the well-characterized KOR agonist U50,488
Efficacy in an analgesia assay in mice (mice; ref Spetea et al. 2012, Erli et al. 2017): efficacy
Locomotor defects in the rotarod assay [4]: neither of these compounds caused locomotor defects
Ki (DOR): 3 µM
Ki (MOR): 0.27 µM
Rotarod incoordination after LY2444296 pretreatment (C57BL6 mice [5]): blocked
Affinity and agonism at the dopamine D2 receptor (dopamine D2 receptor): low affinity and no agonism
